Consider 2 molecules from patent US20100304380A1, “Quantitative DNA Methylation Imaging of Cells and Tissues” (EPILUMINA, INC., priority 2009, published 2010).

SMILES strings stand for the structures.

Assay [1] deals with AtT20 mouse pituitary tumor cells. The assay can be described thus: Quantitative DNA Methylation (MeC) Imaging of nuclear MeC/DAPI colocalization. Type of assay: cell-based. Conditions: treated AtT20 cells in culture versus untreated cells (tight colocalization); FIG. 3. The source says:
Approximately 55% of the human genome is comprised of heterochromatin. […] Therefore, we used the genome and its 3D organization as an indicator to evaluate the effect of demethylating drugs on cancer cells in situ. Our approach provides a statistical measurement on the two classes of DNAs (MeC and DAPI-positive gDNA) as nuclear targets. The algorithm compares the relative distribution of signals derived from these two targets (from two color-channels), projects them onto scatter plots (FIGS. 3 and 4), and then measures the degree of similarities between the plotted signal distributions of cells within a population. This method offers a way to evaluate cellular response to external factors such as drugs and changes in culture conditions via dissimilarity assessment of relevant cellular structures. […] This method considers the strength of statistical evaluation of intra-nuclear MeC/DAPI patterns, especially valuable when cell population homogeneity is difficult to be assessed due to lack of standardized reference and sample size.
FIG. 1 is a workflow of Quantitative DNA Methylation (MeC) Imaging comprised of three steps: (1) immunofluorescence with antibodies against MeC (and against a cell-type or cell-characteristic marker) and DNA counterstaining with DAPI, (2) high-resolution fluorescence microscopy to collect 2D optical sections of the cells, and (3) 3D fluorescence image analysis. […]

The test system of assay [2] is TtT-GF mouse folliculostellate pituitary cell nuclei. The assay can be described thus: Quantitative DNA Methylation Imaging of nuclear MeC/DAPI colocalization. The format is cell-based. The conditions noted are these: 100 nM, 24 hours, TtT-GF cells in culture; selected cells 1-5; FIG. 4.
Text: Therefore, we used the genome and its 3D organization as an indicator to evaluate the effect of demethylating drugs on cancer cells in situ. Our approach provides a statistical measurement on the two classes of DNAs (MeC and DAPI-positive gDNA) as nuclear targets. The algorithm compares the relative distribution of signals derived from these two targets (from two color-channels), projects them onto scatter plots (FIGS. 3 and 4), and then measures the degree of similarities between the plotted signal distributions of cells within a population. This method offers a way to evaluate cellular response to external factors such as drugs and changes in culture conditions via dissimilarity assessment of relevant cellular structures. […] This method considers the strength of statistical evaluation of intra-nuclear MeC/DAPI patterns, especially valuable when cell population homogeneity is difficult to be assessed due to lack of standardized reference and sample size. FIG. 1 is a workflow of Quantitative DNA Methylation (MeC) Imaging comprised of three steps: (1) immunofluorescence with antibodies against MeC (and against a cell-type or cell-characteristic marker) and DNA counterstaining with DAPI, (2) high-resolution fluorescence microscopy to collect 2D optical sections of the cells, and (3) 3D fluorescence image analysis. […]

For the molecule `Nc1ncn([C@@H]2O[C@H](CO)[C@@H](O)[C@H]2O)c(=O)n1` [5-azacytidine], in assay [1], the “change of nuclear DNA methylation patterns (MeC vs heterochromatin/DAPI colocalization)” value is “large foci that are uniquely comprised of three types of signals/genomic loci”.
`C[C@@H](O)[C@@H]1NC(=O)[C@H](CCCCN)NC(=O)[C@@H](Cc2c[nH]c3ccccc23)NC(=O)[C@H](Cc2ccccc2)NC(=O)[C@@H](NC(=O)[C@H](N)Cc2ccccc2)CSSC[C@@H](C(=O)N[C@H](CO)[C@@H](C)O)NC1=O` [octreotide]: in assay [2], the “response (demethylation) of the cell population, MeC vs heterochromatin/DAPI colocalization” value was “diverse response”.
